We go through 6 compounds from paper PMC3961306, “Comparison of the Cancer Gene Targeting and Biochemical Selectivities of All Targeted Kinase Inhibitors Approved for Clinical Use” (PLoS ONE, 2014).

What all share (experiment): Kinase profiling in a biochemical assay panel (mobility shift assays and ELISA), %-inhibition at 1 μM; selectivity entropy
In assay [1] the target is panel of more than 300 wild-type and mutant kinases (313 kinase panel) (Homo sapiens, UniProt P48730).
For assay [2], the target named is panel of more than 300 wild-type and mutant kinases (313 kinase panel) (Homo sapiens, UniProt Q00535).
Sequence of panel of more than 300 wild-type and mutant kinases (313 kinase panel) (Homo sapiens, UniProt Q00535) (Q00535 whole entry, change not shown): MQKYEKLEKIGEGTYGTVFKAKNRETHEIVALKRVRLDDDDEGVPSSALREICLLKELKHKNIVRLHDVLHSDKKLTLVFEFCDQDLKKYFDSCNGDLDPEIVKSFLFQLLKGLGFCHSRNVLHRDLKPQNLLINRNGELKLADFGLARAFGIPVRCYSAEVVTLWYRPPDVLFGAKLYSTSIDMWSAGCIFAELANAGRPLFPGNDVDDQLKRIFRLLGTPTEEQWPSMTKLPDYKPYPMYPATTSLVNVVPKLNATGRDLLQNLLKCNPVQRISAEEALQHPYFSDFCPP
The target of assay [3] is T1, panel of more than 300 wild-type and mutant kinases (313 kinase panel) (Homo sapiens, UniProt Q13043).
T1 sequence (Q13043 1-487): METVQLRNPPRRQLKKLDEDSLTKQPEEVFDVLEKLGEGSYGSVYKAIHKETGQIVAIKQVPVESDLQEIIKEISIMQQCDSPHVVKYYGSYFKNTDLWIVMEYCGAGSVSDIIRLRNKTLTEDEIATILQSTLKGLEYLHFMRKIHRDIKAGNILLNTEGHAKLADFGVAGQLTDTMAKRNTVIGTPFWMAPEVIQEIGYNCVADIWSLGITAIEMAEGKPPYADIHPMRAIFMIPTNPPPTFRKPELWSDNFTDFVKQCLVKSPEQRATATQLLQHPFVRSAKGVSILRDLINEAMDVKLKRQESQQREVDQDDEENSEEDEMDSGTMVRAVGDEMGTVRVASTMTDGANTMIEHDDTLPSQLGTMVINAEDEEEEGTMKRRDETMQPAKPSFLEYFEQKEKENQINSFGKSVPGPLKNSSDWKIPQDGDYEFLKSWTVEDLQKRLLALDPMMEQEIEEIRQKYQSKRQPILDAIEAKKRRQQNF

Assay [4] has as its target T2, panel of more than 300 wild-type and mutant kinases (313 kinase panel) (Homo sapiens, UniProt Q13237).
T2 sequence (Q13237 1-762): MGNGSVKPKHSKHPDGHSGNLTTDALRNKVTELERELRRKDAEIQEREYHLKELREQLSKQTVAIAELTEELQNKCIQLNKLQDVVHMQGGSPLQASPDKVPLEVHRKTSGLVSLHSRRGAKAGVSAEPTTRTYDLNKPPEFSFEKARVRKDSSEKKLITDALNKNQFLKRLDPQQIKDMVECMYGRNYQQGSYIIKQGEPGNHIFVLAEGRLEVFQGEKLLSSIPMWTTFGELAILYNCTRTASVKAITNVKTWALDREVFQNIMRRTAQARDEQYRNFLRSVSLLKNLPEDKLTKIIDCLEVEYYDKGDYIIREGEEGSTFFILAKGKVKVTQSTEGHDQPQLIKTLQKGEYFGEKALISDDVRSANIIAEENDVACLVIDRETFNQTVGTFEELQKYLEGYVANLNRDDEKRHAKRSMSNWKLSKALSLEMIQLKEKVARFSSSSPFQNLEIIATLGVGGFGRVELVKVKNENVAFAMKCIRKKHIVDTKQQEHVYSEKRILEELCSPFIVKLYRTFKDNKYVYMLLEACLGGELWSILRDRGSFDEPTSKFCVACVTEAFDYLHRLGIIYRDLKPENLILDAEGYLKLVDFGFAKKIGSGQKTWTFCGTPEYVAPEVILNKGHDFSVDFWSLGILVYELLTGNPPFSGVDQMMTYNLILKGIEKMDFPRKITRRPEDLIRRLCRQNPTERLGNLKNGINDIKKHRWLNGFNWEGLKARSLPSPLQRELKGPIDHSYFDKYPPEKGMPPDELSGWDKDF

Assay [5] has as its target panel of more than 300 wild-type and mutant kinases (313 kinase panel) (Homo sapiens, UniProt Q15208).
The target of assay [6] is panel of more than 300 wild-type and mutant kinases (313 kinase panel) (Homo sapiens, UniProt Q86Z02).
Assay [7] concerns the target panel of more than 300 wild-type and mutant kinases (313 kinase panel) (Homo sapiens, UniProt Q9UBS0).
Assay [8] addresses T3, panel of more than 300 wild-type and mutant kinases (313 kinase panel) (Homo sapiens, UniProt Q9Y2U5).
T3 sequence (Q9Y2U5 1-619): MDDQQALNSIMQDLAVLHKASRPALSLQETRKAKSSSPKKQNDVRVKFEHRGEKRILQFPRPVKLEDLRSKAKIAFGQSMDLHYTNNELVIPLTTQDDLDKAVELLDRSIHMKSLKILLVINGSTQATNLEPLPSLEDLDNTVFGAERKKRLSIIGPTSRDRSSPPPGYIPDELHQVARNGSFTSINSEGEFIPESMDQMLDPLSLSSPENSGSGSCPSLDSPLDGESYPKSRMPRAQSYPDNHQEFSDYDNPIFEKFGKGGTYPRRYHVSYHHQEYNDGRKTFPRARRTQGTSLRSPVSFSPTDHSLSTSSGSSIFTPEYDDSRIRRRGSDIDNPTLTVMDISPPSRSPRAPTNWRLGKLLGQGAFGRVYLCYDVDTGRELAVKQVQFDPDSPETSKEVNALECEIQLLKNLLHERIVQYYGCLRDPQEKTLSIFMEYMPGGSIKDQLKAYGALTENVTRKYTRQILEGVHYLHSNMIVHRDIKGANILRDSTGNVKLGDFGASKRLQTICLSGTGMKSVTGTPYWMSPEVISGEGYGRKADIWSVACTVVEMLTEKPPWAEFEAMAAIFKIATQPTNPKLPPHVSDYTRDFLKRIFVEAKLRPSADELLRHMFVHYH

The mark [9] stands for this setting: kinase MAP3K2, compound at 1 μM.

Sequence of panel of more than 300 wild-type and mutant kinases (313 kinase panel) (Homo sapiens, UniProt Q15208) (Q15208 whole entry, change not shown): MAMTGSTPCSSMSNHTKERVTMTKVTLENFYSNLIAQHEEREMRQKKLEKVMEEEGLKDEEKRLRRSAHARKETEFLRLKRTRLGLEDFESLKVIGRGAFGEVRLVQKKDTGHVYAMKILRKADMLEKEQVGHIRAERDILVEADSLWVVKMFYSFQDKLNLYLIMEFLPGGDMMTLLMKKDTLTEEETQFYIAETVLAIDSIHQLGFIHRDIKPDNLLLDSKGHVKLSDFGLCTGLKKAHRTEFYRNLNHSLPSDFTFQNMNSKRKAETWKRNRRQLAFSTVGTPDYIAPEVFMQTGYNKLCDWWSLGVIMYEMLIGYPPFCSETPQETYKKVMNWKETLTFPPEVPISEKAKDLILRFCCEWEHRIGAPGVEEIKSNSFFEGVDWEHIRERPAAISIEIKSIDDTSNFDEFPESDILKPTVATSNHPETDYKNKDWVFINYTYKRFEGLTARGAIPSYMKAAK

Take `COc1cc2c(Nc3ccc(Br)cc3F)ncnc2cc1OCC1CCN(C)CC1` [vandetanib]: in assay [1] (kinase CK1δ, 1 μM compound), the “%-inhibition, CK1δ” value was 6%. Moreover, the “%-inhibition, CDK5/p25” value in assay [2] (kinase CDK5/p25, 1 μM compound) is -25%. Moreover, the “%-inhibition of MST1” value in assay [3] (kinase MST1, 1 μM) is reported as 3.16%. In assay [4] (kinase CGK2, 1 μM compound), the “%-inhibition, CGK2” value is listed as -2.65%. Moreover, the “%-inhibition of NDR1” value in assay [5] (kinase NDR1, 1 μM) is given as -9%. In addition, the “%-inhibition of HIPK1” value in assay [6] (kinase HIPK1, compound at 1 μM) is on record as -8%. The “%-inhibition of p70S6Kβ” value in assay [7] (kinase p70S6Kβ, 1 μM) was found to be 2.58%. In addition, the “%-inhibition of MAP3K2” value in assay [8] (setting [9]) stood at 14%.

In the case of `C#Cc1cccc(Nc2ncnc3cc(OCCOC)c(OCCOC)cc23)c1` [erlotinib], the “%-inhibition, CK1δ” value in assay [1] (1 µM) is reported as -4%. For the same compound, the “%-inhibition, CDK5/p25” value in assay [2] (1 µM) was determined as 8%. Besides, in assay [3] (1 µM), the “%-inhibition of MST1” value was -1.06%. Moreover, the “%-inhibition, CGK2” value in assay [4] (1 µM) is on record as -1.7%. In assay [5] (1 µM), the “%-inhibition of NDR1” value is listed as 3.48%. In addition, in assay [6] (1 µM), the “%-inhibition of HIPK1” value amounted to 12%. In addition, the “%-inhibition of p70S6Kβ” value in assay [7] (1 µM) came out at 13%. For the same compound, the “%-inhibition of MAP3K2” value in assay [8] (1 µM) is reported as 14%.

In the case of `CNC(=O)c1cc(Oc2ccc(NC(=O)Nc3ccc(Cl)c(C(F)(F)F)c3)c(F)c2)ccn1` [regorafenib], the “%-inhibition, CK1δ” value in assay [1] (kinase CK1δ, 1 μM compound) is on record as -6%. For the same compound, the “%-inhibition, CDK5/p25” value in assay [2] (kinase CDK5/p25, 1 μM compound) is on record as -19%. The “%-inhibition of MST1” value in assay [3] (kinase MST1, 1 μM) was -5.39%. Also, the “%-inhibition, CGK2” value in assay [4] (kinase CGK2, 1 μM compound) is listed as -1.78%. The “%-inhibition of NDR1” value in assay [5] (kinase NDR1, 1 μM) is given as -9%. In assay [6] (kinase HIPK1, compound at 1 μM), the “%-inhibition of HIPK1” value is on record as 47%. In assay [7] (kinase p70S6Kβ, 1 μM), the “%-inhibition of p70S6Kβ” value was 1.41%. In assay [8] (setting [9]), the “%-inhibition of MAP3K2” value is given as 19%.

Regarding `Cc1ccc(Nc2nccc(N(C)c3ccc4c(C)n(C)nc4c3)n2)cc1S(N)(=O)=O` [pazopanib], in assay [1] (kinase CK1δ, 1 μM compound), the “%-inhibition, CK1δ” value came out at 1.13%. Moreover, the “%-inhibition, CDK5/p25” value in assay [2] (kinase CDK5/p25, 1 μM compound) is 9%. The “%-inhibition of MST1” value in assay [3] (kinase MST1, 1 μM) was 2%. The “%-inhibition, CGK2” value in assay [4] (kinase CGK2, 1 μM compound) was -1%. Besides, the “%-inhibition of NDR1” value in assay [5] (kinase NDR1, 1 μM) turned out to be 2.49%. Besides, in assay [6] (kinase HIPK1, compound at 1 μM), the “%-inhibition of HIPK1” value is 10%. Moreover, the “%-inhibition of p70S6Kβ” value in assay [7] (kinase p70S6Kβ, 1 μM) amounted to 1.69%. Further, in assay [8] (setting [9]), the “%-inhibition of MAP3K2” value was determined as 46%.

As for `CO[C@H]1C[C@@H]2CC[C@@H](C)[C@@](O)(O2)C(=O)C(=O)N2CCCC[C@H]2C(=O)O[C@H]([C@H](C)C[C@@H]2CC[C@@H](OC(=O)C(C)(CO)CO)[C@H](OC)C2)CC(=O)[C@H](C)/C=C(\C)[C@@H](O)[C@@H](OC)C(=O)[C@H](C)C[C@H](C)/C=C/C=C/C=C/1C` [temsirolimus], in assay [1] (kinase CK1δ, 1 μM compound), the “%-inhibition, CK1δ” value is -5.47%. Besides, the “%-inhibition, CDK5/p25” value in assay [2] (kinase CDK5/p25, 1 μM compound) is listed as -22%. Besides, in assay [3] (kinase MST1, 1 μM), the “%-inhibition of MST1” value is recorded as -2.42%. The “%-inhibition, CGK2” value in assay [4] (kinase CGK2, 1 μM compound) was -2.84%. Further, the “%-inhibition of NDR1” value in assay [5] (kinase NDR1, 1 μM) is -4.55%. In assay [6] (kinase HIPK1, compound at 1 μM), the “%-inhibition of HIPK1” value is -0.101%. Further, in assay [7] (kinase p70S6Kβ, 1 μM), the “%-inhibition of p70S6Kβ” value is given as -7%. Further, the “%-inhibition of MAP3K2” value in assay [8] (setting [9]) came out at 5.58%.

With `Cc1cn(-c2cc(NC(=O)c3ccc(C)c(Nc4nccc(-c5cccnc5)n4)c3)cc(C(F)(F)F)c2)cn1` [nilotinib], the “%-inhibition, CK1δ” value in assay [1] (kinase CK1δ, 1 μM compound) is on record as -17%. For the same compound, in assay [2] (kinase CDK5/p25, 1 μM compound), the “%-inhibition, CDK5/p25” value is on record as 0.83%. The “%-inhibition of MST1” value in assay [3] (1 µM) is given as -21%. For the same compound, the “%-inhibition, CGK2” value in assay [4] (kinase CGK2, 1 μM compound) is on record as 12%. For the same compound, in assay [5] (kinase NDR1, 1 μM), the “%-inhibition of NDR1” value was -3%. Further, the “%-inhibition of HIPK1” value in assay [6] (kinase HIPK1, compound at 1 μM) came to 14%. Also, the “%-inhibition of p70S6Kβ” value in assay [7] (kinase p70S6Kβ, 1 μM) was -3.7%. In assay [8] (setting [9]), the “%-inhibition of MAP3K2” value is listed as -26%.
